Data on 13 compounds can be found in patent US20070004763A1, “AMINOQUINOLINE AND AMINOQUINAZOLINE KINASE MODULATORS” (priority 2005, published 2007).

The assay has as its target T1, TrkB (Homo sapiens, UniProt Q16620).
T1 construct: purchased Upstate 14-507M
In words: Trk B Fluorescence Polarization Kinase Assay. The conditions noted are these: 150 uM ATP, 50 nM TrkB; uncertainty ±10%. Format: biochemical. How it is done:
The compounds of the present invention are also specific inhibitors of TrkB. Selection of preferred compounds of Formula I for use as TrkB inhibitors was performed in the following manner. The TrkB assay utilized the fluorescein-labeled phosphopeptide and the anti-phosphotyrosine antibody included in the Panvera Phospho-Tyrosine Kinase Kit (Green) supplied by Invitrogen. When TrkB phosphorylated poly Glu4Tyr, the fluorescein-labeled phosphopeptide was displaced from the anti-phosphotyrosine antibody by the phosphorylated poly Glu4Tyr, thus decreasing the FP value. The TrkB kinase reaction was incubated at room temperature for 30 minutes under the following conditions: 50 nM TrkB (Upstate, catalog #14-507M), 20 ug/mL poly Glu4Tyr, 150 uM ATP, 5 mM MgCl2, 1% compound in DMSO. The kinase reaction was stopped with the addition of EDTA. The fluorescein-labeled phosphopeptide and the anti-phosphotyrosine antibody were added and incubated for 30 minutes at room temperature. Data points were an average of triplicate samples. Inhibition and IC50 data analysis were done with GraphPad Prism using a non-linear regression fit with a multiparamater, sigmoidal dose-response (variable slope) equation.
(In general: In fluorescence polarisation assays a small probe gives low polarisation when free and higher when bound to something large.)

T1 sequence (Q16620 526-822 limits assumed): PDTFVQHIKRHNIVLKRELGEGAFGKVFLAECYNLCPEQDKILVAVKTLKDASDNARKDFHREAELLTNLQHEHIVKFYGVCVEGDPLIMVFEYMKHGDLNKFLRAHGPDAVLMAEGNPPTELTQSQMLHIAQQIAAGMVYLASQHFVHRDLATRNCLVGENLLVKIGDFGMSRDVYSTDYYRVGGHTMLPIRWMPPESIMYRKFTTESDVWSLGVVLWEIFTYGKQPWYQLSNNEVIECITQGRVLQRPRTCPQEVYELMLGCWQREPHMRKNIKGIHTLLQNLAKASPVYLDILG

Compound `COc1cc2ncnc(N3CCC(NC(=O)Nc4ccc(OC5CCC5)nc4)C3)c2cc1OC` (stereo not shown) [Compound 44, 1-(6-Cyclobutoxy-pyridin-3-yl)-3-[1-(6,7-dimethoxy-quinazolin-4-yl)-pyrrolidin-3-yl]-urea] yielded an IC50 of 4.88 µM.
Compound `COc1cc2ncnc(N3CCC(NC(=O)Nc4ccc(OC5CCCC5)nc4)C3)c2cc1OC` (stereo not shown) [Compound 45, 1-(6-Cyclopentyloxy-pyridin-3-yl)-3-[1-(6,7-dimethoxy-quinazolin-4-yl)-pyrrolidin-3-yl]-urea] registered an IC50 of 11.8 µM.
Consider `COc1cc2ncnc(N3CCC(NC(=O)Nc4ccc(N5CCCC5)nc4)C3)c2cc1OC` (stereo not shown) [Compound 46, 1-[1-(6,7-Dimethoxy-quinazolin-4-yl)-pyrrolidin-3-yl]-3-(6-pyrrolidin-1-yl-pyridin-3-yl)-urea], for which the IC50 is 24.8 µM.
As for `COc1cc2ncnc(N3CCC(NC(=O)Nc4ccc(N5CCCCC5)cc4)C3)c2cc1OC` (stereo not shown) [Compound 47, 1-[1-(6,7-Dimethoxy-quinazolin-4-yl)-pyrrolidin-3-yl]-3-(4-piperidin-1-yl-phenyl)-urea], 12 µM corresponded to half-maximal inhibition (IC50).
The value for `COc1cc2ncnc(N3CCC(NC(=O)Nc4ccc(Cl)cc4)C3)c2cc1OC` (stereo not shown) [Compound 48, 1-(4-Chloro-phenyl)-3-[1-(6,7-dimethoxy-quinazolin-4-yl)-pyrrolidin-3-yl]-urea] was 16 µM; that for `COc1cc2ncnc(N3CCC(NC(=O)Nc4ccc(N5CCCC5)cc4)C3)c2cc1OC` (stereo not shown) [Compound 49, 1-[1-(6,7-Dimethoxy-quinazolin-4-yl)-pyrrolidin-3-yl]-3-(4-pyrrolidin-1-yl-phenyl)-urea] was 3.88 µM.
The compound `COc1cc2ncnc(N3CCC(NC(=O)Nc4ccc(C5CCCCC5)cc4)C3)c2cc1OC` (stereo not shown) [Compound 50, 1-(4-Cyclohexyl-phenyl)-3-[1-(6,7-dimethoxy-quinazolin-4-yl)-pyrrolidin-3-yl]-urea] displayed a half-inhibitory concentration (IC50) greater than 46 µM.
`COc1cc2ncnc(N3CCC(NC(=O)Nc4ccc(Oc5ccccc5)cc4)C3)c2cc1OC` (stereo not shown) [Compound 51, 1-[1-(6,7-Dimethoxy-quinazolin-4-yl)-pyrrolidin-3-yl]-3-(4-phenoxy-phenyl)-urea]: 2.74 µM corresponded to half-maximal inhibition (IC50).
`COc1cc2ncnc(N3CCC(NC(=O)Nc4ccc(N(C)C)cc4)C3)c2cc1OC` (stereo not shown) [Compound 52, 1-[1-(6,7-Dimethoxy-quinazolin-4-yl)-pyrrolidin-3-yl]-3-(4-dimethylamino-phenyl)-urea] had an IC50 of 22.7 µM.
As to `COc1cc2ncnc(N3CCC(NC(=O)Nc4ccc(OC5CCCC5)cc4)C3)c2cc1OC` (stereo not shown) [Compound 53, 1-(4-Cyclopentyloxy-phenyl)-3-[1-(6,7-dimethoxy-quinazolin-4-yl)-pyrrolidin-3-yl]-urea], the half-maximal inhibitory concentration (IC50) was 4.07 µM.
Compound `COc1cc2ncnc(N3CCC(OC(=O)Nc4ccc(OC5CCCC5)cc4)C3)c2cc1OC` (stereo not shown) [Compound 54, (4-Cyclopentyloxy-phenyl)-carbamic acid 1-(6,7-dimethoxy-quinazolin-4-yl)-pyrrolidin-3-yl ester] displayed an IC50 of 44.6 µM.
Compound `COc1cc2ncnc(N3CCC(OC(=O)Nc4ccc(OC5CCCC5)cc4)CC3)c2cc1OC` [Compound 55, (4-Cyclopentyloxy-phenyl)-carbamic acid 1-(6,7-dimethoxy-quinazolin-4-yl)-piperidin-4-yl ester] returned an IC50 greater than 46 µM.
In turn, `COc1cc2ncnc(N3CCC(COC(=O)Nc4ccc(OC5CCCC5)cc4)CC3)c2cc1OC` [Compound 56, (4-Cyclopentyloxy-phenyl)-carbamic acid 1-(6,7-dimethoxy-quinazolin-4-yl)-piperidin-4-ylmethyl ester] had an IC50 of 6.58 µM.

A word on the IC50: it is the concentration that inhibits the measured activity by half. Higher therefore signals lower potency.
